Data: patent publication US8372967B2, “Compounds and methods for modulating expression of GCCR” (Isis Pharmaceuticals, Inc., priority 2006, dated 2013)
Strand notation (5' to 3'): a small letter for the sugar, then the base; units joined by * are phosphorothioate-linked, units joined directly phosphodiester-linked; [ ] holds rarer units or linkages, { } end groups; capitals alone tell only the bases. e = 2'-O-(2-methoxyethyl) (MOE); l = locked nucleic acid (LNA); [5mC] = 5-methylcytosine; d = 2'-deoxy (DNA)

Key:
[1] = target: T1, human SGLT2 (Homo sapiens, UniProt P31639); conditions: Xenopus oocytes; cited from earlier work
T1 construct: host or cells: Xenopus oocytes
T1 sequence (P31639 1-672): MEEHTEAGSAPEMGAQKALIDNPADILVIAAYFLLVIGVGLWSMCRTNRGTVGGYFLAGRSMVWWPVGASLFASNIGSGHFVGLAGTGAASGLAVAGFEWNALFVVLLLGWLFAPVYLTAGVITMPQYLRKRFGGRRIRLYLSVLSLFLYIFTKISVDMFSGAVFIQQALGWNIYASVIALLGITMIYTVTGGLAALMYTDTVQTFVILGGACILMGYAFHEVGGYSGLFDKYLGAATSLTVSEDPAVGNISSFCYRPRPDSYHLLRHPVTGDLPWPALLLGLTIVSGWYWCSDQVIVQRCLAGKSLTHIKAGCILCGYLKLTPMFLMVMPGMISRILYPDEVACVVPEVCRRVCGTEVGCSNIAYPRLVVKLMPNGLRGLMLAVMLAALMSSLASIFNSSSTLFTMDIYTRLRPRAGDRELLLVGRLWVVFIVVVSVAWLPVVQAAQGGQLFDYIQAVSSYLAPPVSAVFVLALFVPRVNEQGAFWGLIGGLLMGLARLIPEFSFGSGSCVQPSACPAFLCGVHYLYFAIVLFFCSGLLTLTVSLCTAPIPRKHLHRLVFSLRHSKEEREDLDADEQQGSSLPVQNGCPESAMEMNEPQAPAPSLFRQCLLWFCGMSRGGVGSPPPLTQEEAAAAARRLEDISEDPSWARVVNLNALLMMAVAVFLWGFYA

[2] = system: dog SGLT2 mRNA; assay: Dog SGLT2 mRNA levels in kidney (Table 73); type: in vivo; conditions: 1 mg/kg/wk dose
Protocol: (§1) ISIS 388625 is a 2-8-2 MOE Gapmer with sequence […] (SEQ ID NO: 246) (e.g. see Table 71). The effect of ISIS 388625 on dog SGLT2 mRNA levels. Data are taken from two dosing groups in which a total of nine male beagle dogs were dosed with either one or ten mg/kg/week of ISIS 388625 or saline given by subcutaneous injection twice weekly. On day 46 of the study all dogs were sacrificed and evaluated for SGLT2 levels in kidney. Target levels were determined by quantitative RT, real-time PCR as described by other examples herein. PCR results were normalized to an internal ISIS control.

[3] = system: rat SGLT2 mRNA; assay: Rat SGLT2 mRNA in kidney, 1-10-1 and 2-8-2 MOE gapmer (Table 70); type: in vivo; conditions: Sprague-Dawley rat kidney
Protocol: The effect of ISIS 3796921-10-1 MOE gapmer and ISIS 388625 MOE 2-8-2 gapmer (see Table 70) on rat SGLT2 mRNA levels in vivo. […] Rats were sacrificed 48 hours following last administration and evaluated for SGLT2 levels in kidney. Target levels were determined by RT, real-time PCR as described by other examples herein. PCR results were normalized to an internal ISIS control.

[4] = system: mouse SGLT2 mRNA; assay: Mouse SGLT2 mRNA in kidney, additional 1-10-1 and 2-8-2 MOE gapmers (Table 68); type: in vivo; conditions: Balb/c mouse kidney
[5] = system: mouse SGLT2 mRNA; assay: Mouse SGLT2 mRNA in kidney, MOE versus Methyleneoxy BNA gapmers (Table 69); type: in vivo; conditions: Balb/c mouse kidney
Protocol: The effect of ISIS 3796921-10-1 MOE gapmer and ISIS 3886252-8-2 MOE gapmer are compared with the effect of ISIS 3921701-10-1 Methyleneoxy BNA Gapmer and ISIS 3921732-8-2 Methyleneoxy BNA Gapmer (see Table 69) on mouse SGLT2 mRNA levels in vivo. Data are taken from three experiments in which male 6-week old Balb/c mice were dosed twice per week for three weeks with 5, 25 and 125 nmol/kg of either the ISIS 3796921-10-1 MOE gapmer or the ISIS 3886252-8-2 MOE gapmer given by intraperitoneal injection. Mice were sacrificed 48 hours following last administration and evaluated for SGLT2 mRNA levels in kidney. Target levels were determined by RT, real-time PCR as described by other examples herein. PCR results were normalized to an internal ISIS control. The data are expressed as percent change (“+” indicates an increase, “−” indicates a decrease) relative to saline treated animals and are illustrated in Table 69.

[6] = HbA1c status in ZDF rat (Table 72); type: in vivo; conditions: ZDF rats, 400 nM/kg i.p. once a week for twelve weeks; compared to PBS and control
Protocol: (§2) ISIS 388625, 388626 and control oligo ISIS 388628 were analyzed for their effect on ZDF rat plasma glucose levels and HbA1c. The leptin receptor deficient Zucker diabetic fatty (ZDF) rat is a useful model for the investigation of type 2 diabetes. Diabetes develops spontaneously in these male rats at ages 8-10 weeks, and is associated with hyperphagia, polyuria, polydipsia, and impaired weight gain, symptoms which parallel the clinical symptoms of diabetes (Phillips M S, et al., 1996, Nat Genet. 13, 18-19). Six week old ZDF rats were injected intraperitoneally with short antisense compound at a dose of 400 nM/kg once a week for twelve weeks. Data are illustrated in Tables 71 and 72.

[7] = Plasma glucose in ZDF rat (Table 71); type: in vivo; conditions: ZDF rats, 400 nM/kg i.p. once a week for twelve weeks; compared to PBS and control
Protocol: as §2

[8] = Standard glucose tolerance test and urinary glucose excretion in dog; type: in vivo; conditions: standard glucose tolerance test, on average, compared to saline controls
Protocol: as §1
Even greater reduction can be achieved at slightly higher doses. […] Peak plasma glucose levels were decreased by over 50% on average and the subsequent drop in glucose was lessened compared to saline controls in a standard glucose tolerance test.

[9] = system: mouse SGLT2 mRNA; assay: Mouse SGLT2 mRNA in kidney, wing, gap and total length variations (Table 61); type: in vivo
Protocol: ISIS 3707171-10-1 MOE gapmer was used as a template to make sequence related oligos with varying motifs. The antisense compounds were designed to target different regions of the mouse or rat SGLT2 nucleic acid, using published sequences (GenBank accession number U29881.1, incorporated herein as SEQ ID NO: 1575, and GenBank accession number AJ292928.1, incorporated herein as SEQ ID NO: 1576, respectively).
The antisense compounds were analyzed for their effect on mouse SGLT2 mRNA levels. Data are ranges taken from three experiments in which mice were dosed twice per week for three weeks with 2.5, 0.5 or 0.1 umol/kg of the above MOE gapmers given by intraperitoneal injection. Mice were sacrificed 48 hours following last administration and evaluated for SGLT2 levels in kidney. SGLT2 mRNA levels were determined by RT, real-time PCR as described by other examples herein. PCR results were normalized to an internal ISIS control.

[10] = system: rat SGLT2 mRNA; assay: Rat SGLT2 mRNA in kidney, 1-10-1 and 1-10-2 MOE gapmers, Sprague-Dawley rats (Table 63); type: in vivo
[11] = system: rat SGLT2 mRNA; assay: Rat SGLT2 mRNA in kidney, 1-10-1 gapmers, 250 nmol/kg (Table 66); type: in vivo; conditions: 250 nmol/kg i.p. twice per week for three weeks, Sprague-Dawley rat kidney
Protocol: The effect of the above 1-10-1 gapmers (see Table 64 above) on rat SGLT2 mRNA levels. Data are taken from four experiments in which male Sprague-Dawley rats (170-200 g) were dosed twice per week for three weeks with 250 nmol/kg given by intraperitoneal injection. Rats were sacrificed 48 hours following last administration and evaluated for SGLT2 mRNA levels in kidney. Target levels were determined by RT, real-time PCR as described by other examples herein. PCR results were normalized to an internal ISIS control.

[12] = system: mouse SGLT2 mRNA; assay: Mouse SGLT2 mRNA in kidney, 1-10-1 MOE gapmers, Balb/c mice (Table 65); type: in vivo
Protocol: The short antisense compounds were analyzed for their effect on mouse SGLT2 mRNA levels. Data was taken from three experiments in which Male 6-week old Balb/c mice were dosed twice per week for two weeks with 450, 150, or 50 nmol/kg of one of the above 1-10-1 MOE gapmers given by intraperitoneal injection. Mice were sacrificed 48 hours following last administration and evaluated for SGLT2 mRNA levels in kidney. Target levels were determined by RT, real-time PCR as described by other examples herein. PCR results were normalized to an internal ISIS control.

[13] = system: PTEN mRNA; assay: PTEN mRNA levels in liver, kidney and fat, Balb/c mice, single i.p. 8 μmol/kg (Table 48); type: in vivo, mouse; conditions: 72 h, saline = 100
Text: (§3) Each dose group consisted of four animals. Shown in Table 46 are the sequences and motifs of the PTEN antisense compounds used in this study. Bolded residues indicate 2′-O-methoxyethyl moieties (2′-MOE) and italicized residues indicate Methyleneoxy BNA nucleotides. Each antisense compound comprises phosphorothioate linkages throughout. In addition, the cytosine residues in the gap of ISIS 384073 and in the wings of ISIS 392056, ISIS 392057, ISIS 392061 and ISIS 392063 are replaced with 5-methylcytosines. Antisense compounds target published PTEN nucleic acids, including Genbank Accession No. U92437.1 (SEQ ID
(§4) Mice were sacrificed 72 hours following injection to determine serum transaminase levels (Table 47); liver and spleen weights (Table 47); and PTEN mRNA levels in liver, kidney and fat (Table 48), according to procedures described herein and well know to one of ordinary skill in the art.

[14] = Transaminase levels and organ weights, PTEN study (Table 47); type: in vivo, mouse; conditions: single i.p. 8 μmol/kg, 72 h
Text: as §3, §4

[15] = 0.1 umol/kg i.p. twice per week for three weeks
[16] = 0.5 umol/kg i.p. twice per week for three weeks

## O=C(CCc1ccc(O)cc1)c1c(O)cc(O)cc1O[C@@H]1O[C@H](CO)[C@@H](O)[C@H](O)[C@H]1O [phlorizin]
[1]
  transport activity: suppressed

## ISIS 388625: TGTTCCAGCCCA 2-8-2 MOE Gapmer, SGLT2 (eT*eG*dT*dT*d[5mC]*d[5mC]*dA*dG*d[5mC]*d[5mC]*e[5mC]*eA)
[2]
  reduction of SGLT2 mRNA: greater than 80%
[3]; dose 3.125 umol/kg [sic] i.p. twice per week for three weeks
  % change in SGLT2 expression relative to saline: +25%
[3]; dose 12.5 umol/kg [sic] i.p. twice per week for three weeks
  % change in SGLT2 expression relative to saline: −15%
[3]; dose 50 umol/kg [sic] i.p. twice per week for three weeks
  % change in SGLT2 expression relative to saline: −65%
[3]; dose 200 umol/kg [sic] i.p. twice per week for three weeks
  % change in SGLT2 expression relative to saline: −80%
[4]; 0.02 umol/kg i.p. twice per week for three weeks
  % change in SGLT2 expression relative to saline: −65%
[4]; [15]
  % change in SGLT2 expression relative to saline: −88%
[4]; [16]
  % change in SGLT2 expression relative to saline: −90%
[5]; 5 nmol/kg i.p. twice per week for three weeks
  SGLT2 mRNA, percent change relative to saline treated animals: −18%
[5]; 25 nmol/kg i.p. twice per week for three weeks
  SGLT2 mRNA, percent change relative to saline treated animals: −47%
[5]; 125 nmol/kg i.p. twice per week for three weeks
  SGLT2 mRNA, percent change relative to saline treated animals: −70%
[6]
  HbA1C: significantly reduced
[7]
  Plasma glucose levels: significantly reduced
[8]
  Peak plasma glucose levels decreased: over 50%

## ISIS 370717: TAGCCACCAACT 1-10-1 MOE gapmer, phosphorothioate, SGLT-2 (sugars from the 5' end e1 d10 e1, all phosphorothioate, methylation of C not given here)
[9]; [15]
  % change in SGLT2 expression relative to saline: −55%
[9]; [16]
  % change in SGLT2 expression relative to saline: −70%
[10]; 50 nmol/kg i.p. twice per week for three weeks
  % change in SGLT2 expression relative to saline: −55%
[10]; 150 nmol/kg i.p. twice per week for three weeks
  % change in SGLT2 expression relative to saline: −70%
[10]; 450 nmol/kg i.p. twice per week for three weeks
  % change in SGLT2 expression relative to saline: −70%
[11]
  % change in SGLT2 expression relative to saline: −70%
[12]; 50 nmol/kg i.p. twice per week for two weeks
  % change in SGLT2 expression relative to saline: −47.5%
[12]; 150 nmol/kg i.p. twice per week for two weeks
  % change in SGLT2 expression relative to saline: −55%
[12]; 450 nmol/kg i.p. twice per week for two weeks
  % change in SGLT2 expression relative to saline: −65%

## 392061 (antisense l[5mC]*lT*dA*dG*dC*dC*dT*dC*dT*dG*dG*dA*lT*lT) [compound 392061]
[13]
  % PTEN mRNA levels in Fat: 85%
  % PTEN mRNA levels in Kidney: 61%
  % PTEN mRNA levels in Liver: 24%
[14]
  ALT: 42.0 IU/L

## 391172 (antisense lC*lT*dA*dG*dC*dC*dT*dC*dT*dG*dG*dA*lT*lT*lT) [compound 391172]
[13]
  % PTEN mRNA levels in Kidney: 63%
  % PTEN mRNA levels in Liver: 18%
[14]
  Liver Weight: 120 % Saline
